Tests used:
PC-3 cells [1] = experiment: Cell migration scratch assay, PC-3 cells; type: cell-based, human; details: DHMBA 1, 10, 100, or 1000 μM, 48 hours
Protocol: The migration of the prostate cancer PC-3 and DU-145 cells was examined using a scratch assay. The PC-3 and DU-145 cells (the cell number of 2×10^5/in 1 ml of a culture fluid per hole using a 24-hole plate) were cultured in a DMEM culture fluid containing 10% of FBS, 1% of P/S, and 1% of fungizone under 5% of CO2, at 37° C., for 48 hours, and a straight line scratch was performed using a pipette tip (200 μl) when the cells reached confluence. Free cells were washed with PBS to be removed, the above-described culture fluid (containing 0.1, 1, 10, 100, or 1000 μM of the DHMBA) was added, and the cells were cultured for 48 hours. After the culture, intervals of cell-free parts were measured.
The PC-3 and DU-145 cells (the cell number of 2× 10^5/1 ml of a culture fluid per hole using a 24-hole plate) were cultured under 5% of CO2, at 37° C., for 48 hours in a DMEM culture fluid containing 10% of FBS, 1% of P/S, and 1% of fungizone, and a straight line scratch was performed using a pipette tip (200 μl) when the cells reached confluence. Free cells were washed with PBS to be removed, the above-described culture fluid (containing 0.1, 1, 10, 100, or 1000 μM of the DHMBA) was added, and the cells were cultured for 48 hours. After the culture, intervals of cell-free parts were measured. […]

PC-3 cells [2] = experiment: Cell invasion, Transwell chambers with Matrigel, PC-3 cells; type: cell-based, human; details: DHMBA 1, 10, or 100 μM, 24 hours
Protocol: The cell invasion activity of the prostate cancer PC-3 and DU-145 cells was measured using Transwell chambers (the catalogue number CLS3464-48EA of Corning, Life Sciences, USA). A chamber was placed in each well of the 24-hole plate. 50 μl of Matrigel (Corning Life Sciences, Cat. No. 356230, USA) was added to the upper surface of the chambers. After drying the gel, 500 μl of a suspension of the PC-3 or DU-145 cells (the cell number of 2.5×10^4/ml, the DMEM not containing FBS) was added to the upper surface of the gel. This cell suspension contained the DHMBA (0, 1, 10, or 100 μM). After the addition of the cell suspension to the chambers, it was incubated for one hour to cause the cells to adhere. 0.75 ml of the culture fluid not containing the FBS and a culture fluid containing 10% of FBS were added to the lower surface of the chambers. The cells on the plate were cultured under 5% of CO2, 95% of air, at 37° C., for 24 hours. […] After the drying, the number of the stained cells was counted by the microscope (Olympus MTV-3, Olympus Corporation, Tokyo, Japan). […]
The cell invasion activities of the prostate cancer PC-3 and DU-145 cells were measured using the Transwell chambers. […] After the drying, the number of the stained cells was counted by the microscope (Olympus MTV-3, Olympus Corporation, Tokyo, Japan). […]

In the case of `COc1c(O)cc(CO)cc1O` [DHMBA, 3,5-dihydroxy-4-methoxybenzyl alcohol], the migration (PC-3 cells [1]) is reported as “significantly inhibited” and the invasion (PC-3 cells [2]) is reported as “significantly inhibited”.

From patent US20240350430A1, “GROWTH INHIBITOR OF METASTATIC HUMAN PROSTATE CANCER CELLS” (Watanabe Oyster Laboratory Co., Ltd., priority 2021, published 2024)
